Assay results reported in PubChem BioAssay AID248 (DTP/NCI, 2004).
Inconclusive results and toxic doses are left out.

System: L1210 leukemia ip in BDF1 mice, survival T/C
Experiment: NCI In Vivo Anticancer Drug Screen. Data for tumor model L1210 Leukemia (intraperitoneal) in B6D2F1 (BDF1) mice
Conditions: endpoint: mean survival time, higher = longer survival
In short: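 Tumor was transplanted into mice, which were then dosed with test compound or vehicle alone. Survival was recorded for each group, and the treated figure was expressed relative to the control figure.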

[1] = dose: 100.0 mg/kg/injection, schedule: Q01DX001 (ip), vehicle: carboxymethylcellulose (CMC)
[2] = dose: 200.0 mg/kg/injection, schedule: Q01DX001 (ip), vehicle: carboxymethylcellulose (CMC)
[3] = dose: 400.0 mg/kg/injection, schedule: Q01DX001 (ip), vehicle: carboxymethylcellulose (CMC)
[4] = dose: 100.0 mg/kg/injection, schedule: Q01DX009 (ip), vehicle: saline with Tween-80
[5] = dose: 200.0 mg/kg/injection, schedule: Q01DX009 (ip), vehicle: saline with Tween-80
[6] = dose: 100.0 mg/kg/injection, schedule: Q01DX009 (ip), vehicle: saline
[7] = dose: 200.0 mg/kg/injection, schedule: Q01DX009 (ip), vehicle: saline
[8] = dose: 50.0 mg/kg/injection, schedule: Q01DX001 (ip), vehicle: saline
[9] = dose: 100.0 mg/kg/injection, schedule: Q01DX001 (ip), vehicle: saline
[10] = dose: 200.0 mg/kg/injection, schedule: Q01DX001 (ip), vehicle: saline
[11] = dose: 400.0 mg/kg/injection, schedule: Q01DX001 (ip), vehicle: saline
[12] = dose: 100.0 mg/kg/injection, schedule: Q04DX003 (ip), vehicle: saline
[13] = dose: 200.0 mg/kg/injection, schedule: Q04DX003 (ip), vehicle: saline
[14] = dose: 400.0 mg/kg/injection, schedule: Q04DX003 (ip), vehicle: saline

Structure (SMILES): COc1ccc(C(=O)CCCC(=O)O)cc1
- T/C (dose: 50.0 mg/kg/injection, schedule: Q01DX001 (ip), vehicle: carboxymethylcellulose (CMC)): 105 % of control
- T/C [1]: 100 % of control
- T/C [2]: 111 % of control
- T/C [3]: 105 % of control

Structure (SMILES): O=C(O)/C(=C\c1ccccc1[N+](=O)[O-])c1ccccc1Cl
- T/C [4]: 106 % of control
- T/C [5]: 98 % of control
- T/C (dose: 400.0 mg/kg/injection, schedule: Q01DX009 (ip), vehicle: saline with Tween-80): 95 % of control

Structure (SMILES): CC1Cc2cccc3ccc(=O)n(c23)C1 (stereo not given)
- T/C [1]: 91 % of control
- T/C [2]: 100 % of control
- T/C [3]: 98 % of control

Structure (SMILES): COC(=O)c1ccc([N+](=O)[O-])cc1O
- T/C (dose: 100.0 mg/kg/injection, schedule: Q04DX003 (ip), vehicle: saline with Tween-80): 101 % of control
- T/C (dose: 200.0 mg/kg/injection, schedule: Q04DX003 (ip), vehicle: saline with Tween-80): 102 % of control
- T/C (dose: 400.0 mg/kg/injection, schedule: Q04DX003 (ip), vehicle: saline with Tween-80): 104 % of control

Structure (SMILES): CSc1ccc(NC(=O)Nc2c(C)cc(C)cc2C)cc1
- T/C (dose: 25.0 mg/kg/injection, schedule: Q01DX009 (ip), vehicle: other): 92 % of control
- T/C (dose: 50.0 mg/kg/injection, schedule: Q01DX009 (ip), vehicle: other): 93 % of control
- T/C (dose: 100.0 mg/kg/injection, schedule: Q01DX009 (ip), vehicle: other): 102 % of control

Structure (SMILES): C=Cc1cccc[n+]1[O-]
- T/C [6]: 115 % of control
- T/C [7]: 102 % of control
- T/C (dose: 400.0 mg/kg/injection, schedule: Q01DX009 (ip), vehicle: saline): 102 % of control

Structure (SMILES): CC[n+]1c(C)ccc2ccccc21
- T/C (dose: 25.0 mg/kg/injection, schedule: Q01DX009 (ip), vehicle: Klucel (hydroxypropylcellulose) (HPC)): 91 % of control
- T/C (dose: 25.0 mg/kg/injection, schedule: Q04DX003 (ip), vehicle: Klucel (hydroxypropylcellulose) (HPC)): 99 % of control
- T/C [8]: 95 % of control
- T/C (dose: 50.0 mg/kg/injection, schedule: Q01DX009 (ip), vehicle: Klucel (hydroxypropylcellulose) (HPC)): 91 % of control
- T/C (dose: 50.0 mg/kg/injection, schedule: Q04DX003 (ip), vehicle: Klucel (hydroxypropylcellulose) (HPC)): 99 % of control

Structure (SMILES): CCCCCCCCCCCCCC(CCC)CCC
- T/C [9]: 94 % of control
- T/C [10]: 96 % of control
- T/C [11]: 94 % of control

Structure (SMILES): O=[N+]([O-])c1cc2c(cc1Br)C1C(C3C2C(Cl)(Cl)C(Cl)=C(Cl)C3(Cl)Cl)C(Cl)(Cl)C(Cl)=C(Cl)C1(Cl)Cl (stereo not given)
- T/C [9]: 95 % of control
- T/C [10]: 100 % of control
- T/C [11]: 94 % of control

Structure (SMILES): O=C(OC/C=C/c1ccccc1)c1ccccc1
- T/C (dose: 50.0 mg/kg/injection, schedule: Q01DX009 (ip), vehicle: saline with Tween-80): 97 % of control
- T/C [4]: 91 % of control
- T/C [5]: 91 % of control

Structure (SMILES): C1=CC2(OCCO2)C2CC=CC3(OCCO3)C2C1 (stereo not given)
- T/C [6]: 113 % of control
- T/C [12]: 109 % of control
- T/C [13]: 98 % of control
- T/C [14]: 109 % of control

Structure (SMILES): O=C1C(O)C23CC=CCC12CC=CC3 (stereo not given)
- T/C [9]: 116 % of control
- T/C [10]: 105 % of control
- T/C [11]: 100 % of control

Structure (SMILES): Cc1cc(C(=O)C[n+]2ccccc2)c(CN2C(=O)c3ccccc3C2=O)c(=O)n1C
- T/C (dose: 100.0 mg/kg/injection, schedule: Q01DX001 (ip), vehicle: water): 102 % of control

Structure (SMILES): COc1ccc(NC(=O)/C=C/C(=O)O)cc1
- T/C (dose: 100.0 mg/kg/injection, schedule: Q04DX002 (ip), vehicle: Klucel (hydroxypropylcellulose) (HPC)): 103 % of control
- T/C (dose: 200.0 mg/kg/injection, schedule: Q04DX002 (ip), vehicle: Klucel (hydroxypropylcellulose) (HPC)): 95 % of control
- T/C (dose: 400.0 mg/kg/injection, schedule: Q04DX002 (ip), vehicle: Klucel (hydroxypropylcellulose) (HPC)): 120 % of control

Structure (SMILES): COc1cccc(CNC(C)(C)CO)c1
- T/C (dose: 75.0 mg/kg/injection, schedule: Q01DX001 (ip), vehicle: saline): 95 % of control
- T/C (dose: 150.0 mg/kg/injection, schedule: Q01DX001 (ip), vehicle: saline): 102 % of control
- T/C (dose: 300.0 mg/kg/injection, schedule: Q01DX001 (ip), vehicle: saline): 104 % of control

Structure (SMILES): COc1ccc(/C=N\NC(=O)CCCCC(=O)N/N=C\c2ccc(OC)cc2)cc1
- T/C (dose: 100.0 mg/kg/injection, schedule: Q01DX001 (ip), vehicle: Klucel (hydroxypropylcellulose) (HPC)): 106 % of control
- T/C (dose: 200.0 mg/kg/injection, schedule: Q01DX001 (ip), vehicle: Klucel (hydroxypropylcellulose) (HPC)): 98 % of control
- T/C (dose: 400.0 mg/kg/injection, schedule: Q01DX001 (ip), vehicle: Klucel (hydroxypropylcellulose) (HPC)): 91 % of control

Structure (SMILES): OCCOCCOCCN1CCN(C(c2ccccc2)c2ccc(Cl)cc2)CC1 (stereo not given)
- T/C (dose: 12.5 mg/kg/injection, schedule: Q01DX009 (ip), vehicle: saline): 95 % of control
- T/C (dose: 25.0 mg/kg/injection, schedule: Q01DX009 (ip), vehicle: saline): 100 % of control
- T/C (dose: 50.0 mg/kg/injection, schedule: Q01DX009 (ip), vehicle: saline): 101 % of control
- T/C [6]: 95 % of control
- T/C [7]: 91 % of control

Structure (SMILES): O=C(O)c1ccc(-c2c3ccc(=O)cc-3oc3cc(O)ccc23)c(C(=O)O)c1
- T/C [12]: 97 % of control
- T/C [13]: 105 % of control
- T/C [14]: 97 % of control

Structure (SMILES): O=C1C2C(C(=O)N1c1ccccc1)C(c1ccccc1)N(c1ccccc1)C2c1ccccc1 (stereo not given)
- T/C [8]: 103 % of control
- T/C [9]: 108 % of control
- T/C [10]: 100 % of control
- T/C [11]: 103 % of control

Structure (SMILES): CCCCCCCCCCCCCCCCOC(=O)Cl
- T/C (dose: 100.0 mg/kg/injection, schedule: Q01DX001 (ip), vehicle: other): 98 % of control
- T/C (dose: 200.0 mg/kg/injection, schedule: Q01DX001 (ip), vehicle: other): 90 % of control
- T/C (dose: 400.0 mg/kg/injection, schedule: Q01DX001 (ip), vehicle: other): 106 % of control

Structure (SMILES): O=C(/C=C\c1ccc(C(=O)Nc2ccc(C3=NCCCN3)cc2)cc1)Nc1ccc(C2=NCCCN2)cc1
- T/C (dose: 0.25 mg/kg/injection, schedule: Q01DX Z (ip), vehicle: water): 121 % of control
- T/C (dose: 0.75 mg/kg/injection, schedule: Q01DX Z (ip), vehicle: water): 183 % of control
- T/C (dose: 1.0 mg/kg/injection, schedule: Q01DX Z (ip), vehicle: water): 220 % of control
- T/C (dose: 1.25 mg/kg/injection, schedule: Q01DX Z (ip), vehicle: water): 203 % of control
- T/C (dose: 10.5 mg/kg/injection, schedule: Q01DX Z (ip), vehicle: water): 123 % of control
- T/C (dose: 50.0 mg/kg/injection, schedule: Q01DX Z (oral), vehicle: water): 101 % of control
- T/C (dose: 100.0 mg/kg/injection, schedule: Q01DX Z (oral), vehicle: water): 93 % of control
- T/C (dose: 200.0 mg/kg/injection, schedule: Q01DX Z (oral), vehicle: water): 114 % of control

Structure (SMILES): CCC(C)c1ccc(O)c(CN(CCO)CCO)c1 (stereo not given)
- T/C [9]: 105 % of control
- T/C [10]: 101 % of control

Structure (SMILES): O=C(OC(CC[P+](c1ccccc1)(c1ccccc1)c1ccccc1)(C(=O)c1ccccc1)c1ccccc1)c1ccccc1 (stereo not given)
- T/C (dose: 3.0 mg/kg/injection, schedule: Q04DX003 (ip), vehicle: saline): 98 % of control
- T/C (dose: 6.0 mg/kg/injection, schedule: Q04DX003 (ip), vehicle: saline): 103 % of control
- T/C (dose: 12.0 mg/kg/injection, schedule: Q04DX003 (ip), vehicle: saline): 94 % of control
- T/C (dose: 15.0 mg/kg/injection, schedule: Q01DX001 (ip), vehicle: carboxymethylcellulose (CMC)): 90 % of control
- T/C (dose: 30.0 mg/kg/injection, schedule: Q01DX001 (ip), vehicle: carboxymethylcellulose (CMC)): 98 % of control
- T/C (dose: 60.0 mg/kg/injection, schedule: Q01DX001 (ip), vehicle: carboxymethylcellulose (CMC)): 95 % of control
- T/C (dose: 75.0 mg/kg/injection, schedule: Q01DX001 (ip), vehicle: carboxymethylcellulose (CMC)): 88 % of control

Structure (SMILES): CC1CC(C)(C)C/C1=N/Nc1ccc([N+](=O)[O-])cc1[N+](=O)[O-] (stereo not given)
- T/C (dose: 100.0 mg/kg/injection, schedule: Q04DX002 (ip), vehicle: saline with Tween-80): 97 % of control
- T/C (dose: 200.0 mg/kg/injection, schedule: Q04DX002 (ip), vehicle: saline with Tween-80): 94 % of control
- T/C (dose: 400.0 mg/kg/injection, schedule: Q04DX002 (ip), vehicle: saline with Tween-80): 87 % of control

Structure (SMILES): N#CCCN1CCN(CCC#N)CC1
- T/C [12]: 96 % of control
- T/C [13]: 103 % of control
- T/C [14]: 100 % of control

Structure (SMILES): CC(Br)C(=O)NCC(=O)O (stereo not given)
- T/C [4]: 93 % of control
- T/C [5]: 92 % of control
